According to patent US20220152082A1, “Methods for Cancer Diagnosis, Prognosis or Treatment” (AnPac Bio-Medical Science Co., Ltd., priority 2019, published 2022):

What was measured:
[1] = tested on: LINC00472; assay: qRT-PCR of LINC00472 expression, T47D; type: cell-based, human; conditions: 10 μM, 8 days
Description: Total RNA was extracted from fresh-frozen tumor samples and cultured tumor cells using the […] kit (Qiagen). RNA samples were reverse-transcribed (RT) to cDNA using the cDNA Reverse Transcription kit (LifeTech), and analyzed for LINC00472 expression with real-time PCR (qPCR). Breast cancer cells were transfected with Lincode Human LINC00472 (79940) siRNA-SMART pool (D-001320-10-05) or Lincode Non-targeting Pool (D-001320-10-05), negative control from Dharmacon, following the manufacturer's protocol for Lipofectamine RNAiMAX (Thermo Fisher Scientific). The method of transfection was known in the art. Cell lysates were prepared for analysis after 36 hours of incubation of the transfected cells. […] After eight days of culture, cells were collected, and total RNA and proteins were extracted for qRT-PCR analysis of LINC00472 and western blot of ERα and NF-κB, respectively.

[2] = tested on: NF-κB; assay: Western blot of p65 and IκBα phosphorylation, T47D; type: cell-based, human; conditions: 10 μM, 8 days
[3] = tested on: LINC00472; assay: TNF-α treatment, LINC00472 expression; type: cell-based; conditions: breast cancer cells, TNF-α 10 ng/ml, 24 hours
Description: Total RNA was extracted from fresh-frozen tumor samples and cultured tumor cells using the Allprep DNA/RNA kit (Qiagen). RNA samples were reverse-transcribed (RT) to cDNA using the cDNA Reverse Transcription kit (LifeTech), and analyzed for LINC00472 expression with real-time PCR (qPCR).
TNF-α (Sigma-Aldrich), diluted in the culture medium immediately before experiment, was added to cultured cells with a final concentration of 10 ng/ml. The cells were incubated for 24 hours before analysis. DMSO (Sigma-Aldrich) treated cells were used as control. Total RNA and proteins were extracted for analysis of LINC00472 expression and NF-κB activation.

Compound | expression of LINC00472 [1] | expression of LINC00472 ([1]; listed as tamoxifen) | phosphorylation of p65 and IκBα [2] | LINC00472 expression [3]
CC/C(=C(\c1ccc(O)cc1)c1ccc(OCCN(C)C)cc1)c1ccccc1 [4-hydroxytamoxifen, 4-Hydroxytamoxifen] | decreased | lowered | increased | –
TNF-α | – | – | – | no effect
